Source: the supplement of paper PMC13207355

Columns and labels:
Conditions in all cases: exposure time: 72 h
E28 [1] = patient-derived glioblastoma stem cells of classical subtype; assay: surviving fraction (nuclei count normalised to DMSO); higher = more cells surviving (less toxic)
E21 [2] = patient-derived glioblastoma stem cells of mesenchymal subtype; assay: as above
E13 [3] = patient-derived glioblastoma stem cells of classical subtype; assay: as above
E31 [4] = patient-derived glioblastoma stem cells of proneural subtype; assay: as above
FT3469 [5] = normal neural stem cell line; assay: as above
E34 [6] = patient-derived glioblastoma stem cells of proneural subtype; assay: as above
E57 [7] = patient-derived glioblastoma stem cells of mesenchymal subtype; assay: as above
E28 [8] = assay: phenotypic distance (Euclidean, principal components) from DMSO controls (arbitrary units); higher = stronger morphological change
E21 [9] = assay: as above
E13 [10] = assay: as above
E31 [11] = assay: as above
FT3469 [12] = assay: as above
E34 [13] = assay: as above
E57 [14] = assay: as above
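Wherever phenotypic distance (Euclidean, principal components) from DMSO controls is given: cell Painting imaging in 384-well plates, CellProfiler features reduced to at least 20 principal components, Euclidean distance versus same-plate DMSO vehicle wells (0.1% v/v), median over six images per well.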
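Wherever surviving fraction (nuclei count normalised to DMSO) is given: nuclei counted by high-content imaging of Hoechst-stained cells in laminin-coated 384-well plates, relative to 0.1% DMSO vehicle wells, with staurosporine as cell-death control.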

C#C[C@]1(O)CC[C@H]2[C@@H]3CCc4cc(OC5CCCC5)ccc4[C@H]3CC[C@@]21C [Quinestrol]
Conditions	phenotypic distance	surviving fraction
E13 [3], 4.1 nM	–	1.06
E13 [3], 12.3 nM	–	1.04
E13 [3], 37 nM	–	1.11
E13 [3], 111.1 nM	–	1.07
E13 [3], 333.3 nM	–	1.02
E13 [3], 1000 nM	–	0.946
E13 [3], 3000 nM	–	0.347
E13 [10], 4.1 nM	0.478	–
E13 [10], 12.3 nM	0.526	–
E13 [10], 37 nM	0.837	–
E13 [10], 111.1 nM	0.697	–
E13 [10], 333.3 nM	0.689	–
E13 [10], 1000 nM	1.18	–
E13 [10], 3000 nM	7.05	–
E21 [2], 4.1 nM	–	1.01
E21 [2], 12.3 nM	–	0.938
E21 [2], 37 nM	–	1.05
E21 [2], 111.1 nM	–	0.982
E21 [2], 333.3 nM	–	1.02
E21 [2], 1000 nM	–	0.873
E21 [2], 3000 nM	–	0.617
E21 [9], 4.1 nM	0.608	–
E21 [9], 12.3 nM	0.48	–
E21 [9], 37 nM	0.746	–
E21 [9], 111.1 nM	0.53	–
E21 [9], 333.3 nM	0.819	–
E21 [9], 1000 nM	2.32	–
E21 [9], 3000 nM	6.37	–
E28 [1], 4.1 nM	–	1.13
E28 [1], 12.3 nM	–	1.04
E28 [1], 37 nM	–	1.08
E28 [1], 111.1 nM	–	1.1
E28 [1], 333.3 nM	–	1.04
E28 [1], 1000 nM	–	1.19
E28 [1], 3000 nM	–	1.01
E28 [8], 4.1 nM	0.438	–
E28 [8], 12.3 nM	2.42	–
E28 [8], 37 nM	0.788	–
E28 [8], 111.1 nM	0.466	–
E28 [8], 333.3 nM	0.753	–
E28 [8], 1000 nM	0.514	–
E28 [8], 3000 nM	0.675	–
E31 [4], 4.1 nM	–	1.02
E31 [4], 12.3 nM	–	0.942
E31 [4], 37 nM	–	1.09
E31 [4], 111.1 nM	–	1.07
E31 [4], 333.3 nM	–	0.981
E31 [4], 1000 nM	–	1.01
E31 [4], 3000 nM	–	0.848
E31 [11], 4.1 nM	0.447	–
E31 [11], 12.3 nM	0.67	–
E31 [11], 37 nM	1.03	–
E31 [11], 111.1 nM	0.71	–
E31 [11], 333.3 nM	0.698	–
E31 [11], 1000 nM	0.864	–
E31 [11], 3000 nM	3.81	–
E34 [6], 4.1 nM	–	1.01
E34 [6], 12.3 nM	–	1.07
E34 [6], 37 nM	–	1.01
E34 [6], 111.1 nM	–	1.07
E34 [6], 333.3 nM	–	1.15
E34 [6], 1000 nM	–	0.967
E34 [6], 3000 nM	–	0.918
E34 [13], 4.1 nM	0.544	–
E34 [13], 12.3 nM	0.554	–
E34 [13], 37 nM	0.597	–
E34 [13], 111.1 nM	0.985	–
E34 [13], 333.3 nM	1.09	–
E34 [13], 1000 nM	0.707	–
E34 [13], 3000 nM	1.82	–
E57 [7], 4.1 nM	–	1.05
E57 [7], 12.3 nM	–	1.05
E57 [7], 37 nM	–	1.01
E57 [7], 111.1 nM	–	1.06
E57 [7], 333.3 nM	–	1.01
E57 [7], 1000 nM	–	1.03
E57 [7], 3000 nM	–	0.693
E57 [14], 4.1 nM	1.71	–
E57 [14], 12.3 nM	1.01	–
E57 [14], 37 nM	0.583	–
E57 [14], 111.1 nM	0.81	–
E57 [14], 333.3 nM	0.452	–
E57 [14], 1000 nM	0.7	–
E57 [14], 3000 nM	3.72	–
FT3469 [5], 4.1 nM	–	0.963
FT3469 [5], 12.3 nM	–	1.03
FT3469 [5], 37 nM	–	1.11
FT3469 [5], 111.1 nM	–	1.09
FT3469 [5], 333.3 nM	–	1.2
FT3469 [5], 1000 nM	–	0.888
FT3469 [5], 3000 nM	–	0.938
FT3469 [12], 4.1 nM	0.479	–
FT3469 [12], 12.3 nM	0.739	–
FT3469 [12], 37 nM	0.643	–
FT3469 [12], 111.1 nM	1.01	–
FT3469 [12], 333.3 nM	0.84	–
FT3469 [12], 1000 nM	0.699	–
FT3469 [12], 3000 nM	1.58	–
